The record followed here is paper PMC2910156 (Journal of neurochemistry, 2010).

The test addresses α-synuclein (E46K α-syn) (Homo sapiens, UniProt P37840, E46K). As to the kind of experiment: Thioflavin T fibrillization assay with purified E46K α-syn. It is filed as biochemical.

Structures are written as SMILES.

By IC50 is commonly meant the concentration at which inhibition is half-maximal. With `O=c1cc(-c2ccccc2)oc2cc(O)c(O)c(O)c12` [Baicalein], the IC50 is roughly 10 µM.
